Test results as given in US7858620B2, “Cyanoisoquinoline” (H. Lundbeck A/S, priority 2007, dated 2010).

Legend:
PDE10A enzyme = molecular target: T1, PDE10A enzyme (Homo sapiens, UniProt Q9Y233); experiment: PDE10A inhibition assay, SPA; assay type: biochemical; settings: column head 2,1334003; unit inferred, nM
T1 construct: made in house; host or cells: E. coli BL21(DE3)
Experimental: Active PDE10A enzyme is prepared in a number of ways for use in PDE assays (Loughney, K. et al. Gene 1999, 234, 109-117; Fujishige, K. et al. Eur J Biochem. 1999, 266, 1118-1127 and Soderling, S. et al. Proc. Natl. Acad. Sci. 1999, 96, 7071-7076). PDE10A can be expressed as full-length proteins or as truncated proteins, as long as they express the catalytic domain. PDE10A can be prepared in different cell types, for example insect cells or E. coli. An example of a method to obtain catalytically active PDE10A is as follows: The catalytic domain of human PDE10A (amino acids 440-779 from the sequence with accession number NP 006652) is amplified from total human brain total RNA by standard RT-PCR and is cloned into the BamH1 and Xho1 sites of the pET28a vector (Novagen). Expression in coli is performed according to standard protocols. Briefly, the expression plasmids are transformed into the BL21(DE3) E. coli strain, and 50 mL cultures inoculated with the cells allowed to grow to an OD600 of 0.4-0.6 before protein expression is induced with 0.5 mM IPTG. Following induction, the cells are incubated overnight at room temperature, after which the cells are collected by centrifugation. Cells expressing PDE10A are resuspended in 12 mL (50 mM TRIS-HCl-pH8.0, 1 mM MgCl2 and protease inhibitors). The cells are lysed by sonication, and after all cells are lysed, TritonX100 is added according to Novagen protocols.
PDE10A and Pde3A assays can for example be performed as follows: PDE10A and Pde3A assays are performed in 60 uL samples containing a fixed amount of the relevant PDE enzyme (sufficient to convert 20-25% of the cyclic nucleotide substrate), a buffer (50 mM HEPES7.6; 10 mM MgCl2; 0.02% Tween20), 0.1 mg/ml BSA, 225 pCi of ^3H-labelled cyclic nucleotide substrate, tritium labeled cAMP to a final concentration of 5 nM and varying amounts of inhibitors. Reactions are initiated by addition of the cyclic nucleotide substrate, and reactions are allowed to proceed for one hr at room temperature before being terminated through mixing with 15 uL 8 mg/mL yttrium silicate SPA beads (Amersham). The beads are allowed to settle for one hr in the dark before the plates are counted in a Wallac 1450 Microbeta counter. The measured signal can be converted to activity relative to an uninhibited control (100%) and IC50 values can be calculated using the Xlfit extension to EXCEL.

catalepsy in rats = settings: cited from earlier work
[1] = system: PCP induced hyperactivity in rats; settings: cited from earlier work
[2] = system: amphetamine induced hyperactivity; settings: rat, in vivo; cited from earlier work

T1 sequence (Q9Y233 716-1055): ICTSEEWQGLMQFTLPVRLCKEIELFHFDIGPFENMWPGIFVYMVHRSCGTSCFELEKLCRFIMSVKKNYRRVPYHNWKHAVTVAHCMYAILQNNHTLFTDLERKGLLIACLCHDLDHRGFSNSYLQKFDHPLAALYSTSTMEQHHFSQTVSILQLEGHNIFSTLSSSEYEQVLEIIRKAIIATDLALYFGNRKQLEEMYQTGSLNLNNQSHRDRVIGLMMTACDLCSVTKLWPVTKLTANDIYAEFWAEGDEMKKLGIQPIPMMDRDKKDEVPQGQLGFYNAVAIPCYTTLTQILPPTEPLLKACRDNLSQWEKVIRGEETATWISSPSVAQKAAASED

| IC50 (PDE10A enzyme) [nM] | SMILES | catalepsy on its own (catalepsy in rats; alone) | effect on cataleptic effect of haloperidol (catalepsy in rats; with D2 receptor antagonist haloperidol) | hyperactivity induced by PCP [1] | reduction of amphetamine induced hyperactivity [2] |
| --- | --- | --- | --- | --- | --- |
| 440 | COc1cc2c(C#N)cnc(N3CCNC(c4ccc(OC)c(C(F)(F)F)c4)C3)c2cc1OC (stereo not shown) [Compound 68, 6,7-Dimethoxy-1-[3-(4-methoxy-3-trifluoromethyl-phenyl)-piperazin-1-yl]-isoquinoline-4-carbonitrile] |  |  |  |  |
| 790 | CCOc1ccc(C2CN(c3ncc(C#N)c4cc(OC)c(OC)cc34)CCN2)c(C)c1 (stereo not shown) [Compound 69, 1-[3-(4-Ethoxy-2-methyl-phenyl)-piperazin-1-yl]-6,7-dimethoxy-isoquinoline-4-carbonitrile] |  |  |  |  |
| 66 | COc1ccc(C2CN(c3ncc(C#N)c4cc(OC)c(OC)cc34)CCN2)cc1NC(C)=O (stereo not shown) [Compound 70, N-{5-[4-(4-Cyano-6,7-dimethoxy-isoquinolin-1-yl)-piperazin-2-yl]-2-methoxy-phenyl}-acetamide] |  |  |  |  |
|  | COc1ccc(Cc2nccc3cc(OC)c(OC)cc23)cc1OC [Papaverin] | did not cause catalepsy on its own | potentiated the cataleptic effect | reduced hyperactivity | insignificant |
